Here are results for 14 compounds from patent US10780090B2, “Heteroaryl compounds useful as inhibitors of SUMO activating enzyme” (Millennium Pharmaceuticals, Inc., priority 2014, dated 2020).

As usually defined, the IC50 is the concentration that gives 50% inhibition.

For this test, the target named is recombinant human SAE enzyme (Homo sapiens (Human), UniProt Q9UBT2). Description: SAE HTRF enzyme assay. The test is classed as biochemical. The note with it: for Percent Inhibition: Concentration 0.111 μM; for IC50: class symbols A/B/C. In outline:
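0.11 nM SAE incubated with 0.5 μM ATP, 0.01 μM Ubc9-GST and 0.125 μM Sumo-Flag in HEPES pH 7.5, MgCl2, GSH, BSA, ±inhibitor, 105 min at 24° C. EDTA stop; Eu-cryptate anti-Flag/XL-APC anti-GST HTRF read after 2 h. Values given as single-concentration % inhibition or IC50.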

Sequence of recombinant human SAE enzyme (Q9UBT2 whole entry): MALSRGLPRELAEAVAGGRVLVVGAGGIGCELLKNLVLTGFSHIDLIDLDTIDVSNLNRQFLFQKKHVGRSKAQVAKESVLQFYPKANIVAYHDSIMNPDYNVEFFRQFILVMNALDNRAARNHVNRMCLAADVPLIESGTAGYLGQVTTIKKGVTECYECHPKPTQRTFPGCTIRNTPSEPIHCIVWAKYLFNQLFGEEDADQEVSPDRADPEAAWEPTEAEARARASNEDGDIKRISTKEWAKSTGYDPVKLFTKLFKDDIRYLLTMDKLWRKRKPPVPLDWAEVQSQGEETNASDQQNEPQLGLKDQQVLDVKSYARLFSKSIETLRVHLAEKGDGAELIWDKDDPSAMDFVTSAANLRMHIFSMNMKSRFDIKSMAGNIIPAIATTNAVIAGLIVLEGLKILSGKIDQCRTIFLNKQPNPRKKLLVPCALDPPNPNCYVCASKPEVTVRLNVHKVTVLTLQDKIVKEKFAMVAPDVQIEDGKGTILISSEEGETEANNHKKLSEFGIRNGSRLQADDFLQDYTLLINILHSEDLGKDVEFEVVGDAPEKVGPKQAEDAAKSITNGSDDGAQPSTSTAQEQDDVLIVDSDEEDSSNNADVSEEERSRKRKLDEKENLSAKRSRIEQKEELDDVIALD
Sequence of recombinant human SAE enzyme (Q9UBE0 whole entry partner): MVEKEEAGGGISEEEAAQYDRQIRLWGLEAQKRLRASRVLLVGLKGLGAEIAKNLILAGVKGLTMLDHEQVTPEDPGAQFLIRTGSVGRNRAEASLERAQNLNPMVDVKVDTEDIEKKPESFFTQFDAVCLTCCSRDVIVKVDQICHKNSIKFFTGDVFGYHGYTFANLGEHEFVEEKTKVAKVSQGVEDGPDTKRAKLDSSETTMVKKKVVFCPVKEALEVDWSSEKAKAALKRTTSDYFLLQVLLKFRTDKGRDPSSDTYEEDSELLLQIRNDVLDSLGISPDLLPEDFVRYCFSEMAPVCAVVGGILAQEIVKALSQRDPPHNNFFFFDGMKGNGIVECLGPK

`C[C@@H](c1cccc(Cl)c1)c1csc(C(=O)c2cncnc2N[C@@H]2C[C@H](COS(N)(=O)=O)[C@@H](O)C2)c1` (mixture of isomers) [I-117, [(1R,2S,4R)-4-{[5-({4-[(1S)-1-(3-chlorophenyl)ethyl]-2-thienyl}carbonyl)pyrimidin-4-yl]amino}-2-hydroxycyclopentyl]methyl sulfamate and [(1R,2S,4R)-4-{[5-({4-[(1R)-1-(3-chlorophenyl)ethyl]-2-thienyl}carbonyl)pyrimidin-4-yl]amino}-2-hydroxycyclopentyl]methyl sulfamate]: the “Percent Inhibition” value was 93 and the concentration for half-maximal inhibition (IC50) is less than 10 nM.

On to `Cc1sc(C(=O)c2cncnc2N[C@@H]2C[C@H](COS(N)(=O)=O)[C@@H](O)C2)cc1[C@@]1(c2ccccc2)CCCO1` (mixture of isomers) [I-121, [(1R,2S,4R)-2-hydroxy-4-{[5-({5-methyl-4-[(2S)-2-phenyltetrahydrofuran-2-yl]-2-thienyl}carbonyl)pyrimidin-4-yl]amino}cyclopentyl]methyl sulfamate and [(1R,2S,4R)-2-hydroxy-4-{[5-({5-methyl-4-[(2R)-2-phenyltetrahydrofuran-2-yl]-2-thienyl}carbonyl)pyrimidin-4-yl]amino}cyclopentyl]methyl sulfamate], for which the “Percent Inhibition” value was 98 and the IC50 was less than 10 nM.

On to `NS(=O)(=O)OC[C@H]1C[C@@H](Nc2ncncc2C(=O)c2cc([S@+]([O-])c3cccc(C(F)(F)F)c3)c(Cl)s2)C[C@@H]1O` (mixture of isomers) [I-122, [(1R,2S,4R)-4-({5-[(5-chloro-4-{(R)-[3-(trifluoromethyl)phenyl]sulfinyl}-2-thienyl)carbonyl]pyrimidin-4-yl}amino)-2-hydroxycyclopentyl]methyl sulfamate and [(1R,2S,4R)-4-({5-[(5-chloro-4-{(S)-[3-(trifluoromethyl)phenyl]sulfinyl}-2-thienyl)carbonyl]pyrimidin-4-yl}amino)-2-hydroxycyclopentyl]methyl sulfamate], for which the “Percent Inhibition” value is listed as 98 and the half-maximal inhibitory concentration (IC50) was less than 10 nM.

For the compound `Cc1sc(C(=O)c2cncnc2N[C@@H]2C[C@H](COS(N)(=O)=O)[C@@H](O)C2)cc1[C@H](C)c1cccc(Cl)c1` (mixture of isomers) [I-135, [(1R,2S,4R)-4-{[5-({4-[(1R)-1-(3-chlorophenyl)ethyl]-5-methyl-2-thienyl}carbonyl)pyrimidin-4-yl]amino}-2-hydroxycyclopentyl]methyl sulfamate and [(1R,2S,4R)-4-{[5-({4-[(1S)-1-(3-chlorophenyl)ethyl]-5-methyl-2-thienyl}carbonyl)pyrimidin-4-yl]amino}-2-hydroxycyclopentyl]methyl sulfamate], the “Percent Inhibition” value is 94 and the IC50 was in the range of 10 to 100 nM.

Consider `C=C(C)[C@H](O)c1cc(C(=O)c2cncnc2N[C@@H]2C[C@H](COS(N)(=O)=O)[C@@H](O)C2)sc1Cl` (mixture of isomers) [I-141, [(1R,2S,4R)-4-{[5-({5-chloro-4-[(1S)-1-hydroxy-2-methylprop-2-en-1-yl]-2-thienyl}carbonyl)pyrimidin-4-yl]amino}-2-hydroxycyclopentyl]methyl sulfamate and [(1R,2S,4R)-4-{[5-({5-chloro-4-[(1R)-1-hydroxy-2-methylprop-2-en-1-yl]-2-thienyl}carbonyl)pyrimidin-4-yl]amino}-2-hydroxycyclopentyl]methyl sulfamate], for which the “Percent Inhibition” value amounted to 95 and the 50% inhibitory concentration (IC50) was less than 10 nM.

With `NS(=O)(=O)OC[C@H]1C[C@@H](Nc2ncncc2C(=O)c2cc([C@H](O)c3cc(Cl)ccc3Cl)c(Cl)s2)C[C@@H]1O` (mixture of isomers) [I-149, [(1R,2S,4R)-4-{[5-({5-chloro-4-[(R)-(2,5-dichlorophenyl)(hydroxy)methyl]-2-thienyl}carbonyl)pyrimidin-4-yl]amino}-2-hydroxycyclopentyl]methyl sulfamate and [(1R,2S,4R)-4-{[5-({5-chloro-4-[(S)-(2,5-dichlorophenyl)(hydroxy)methyl]-2-thienyl}carbonyl)pyrimidin-4-yl]amino}-2-hydroxycyclopentyl]methyl sulfamate], the “Percent Inhibition” value was 97 and the IC50 is less than 10 nM.

As to `CC(O)(c1cccc(Cl)c1)c1ccc(C(=O)c2cncnc2NC2CC(O)C(COS(N)(=O)=O)C2)s1` (mixture of isomers) [I-152, [(1R,2S,4R)-4-{[5-({5-[(1R)-1-(3-chlorophenyl)-1-hydroxyethyl]-2-thienyl}carbonyl)pyrimidin-4-yl]amino}-2-hydroxycyclopentyl]methyl sulfamate and [(1R,2S,4R)-4-{[5-({5-[(1S)-1-(3-chlorophenyl)-1-hydroxyethyl]-2-thienyl}carbonyl)pyrimidin-4-yl]amino}-2-hydroxycyclopentyl]methyl sulfamate], the “Percent Inhibition” value was determined as 93 and the IC50 was less than 10 nM.

For the compound `CN(C)C(c1cccc(Cl)c1)c1csc(C(=O)c2cncnc2NC2CC(O)C(COS(N)(=O)=O)C2)c1` (mixture of isomers) [I-153, [(1R,2S,4R)-4-{[5-({4-[(R)-(3-Chlorophenyl)(dimethylamino)methyl]-2-thienyl}carbonyl)pyrimidin-4-yl]amino}-2-hydroxycyclopentyl]methyl sulfamate and [(1R,2S,4R)-4-{[5-({4-[(S)-(3-chlorophenyl)(dimethylamino)methyl]-2-thienyl}carbonyl)pyrimidin-4-yl]amino}-2-hydroxycyclopentyl]methyl sulfamate], the “Percent Inhibition” value turned out to be 86 and the IC50 fell in the range of 10 to 100 nM.

As for `NS(=O)(=O)OCC1CC(Nc2ncncc2C(=O)c2cc(C3(c4cccc(Cl)c4)CCCCO3)cs2)CC1O` (mixture of isomers) [I-154, [(1R,2S,4R)-4-{[5-({4-[(2R)-2-(3-chlorophenyl)tetrahydro-2H-pyran-2-yl]-2-thienyl}carbonyl)pyrimidin-4-yl]amino}-2-hydroxycyclopentyl]methyl sulfamate and [(1R,2S,4R)-4-{[5-({4-[(2S)-2-(3-chlorophenyl)tetrahydro-2H-pyran-2-yl]-2-thienyl}carbonyl)pyrimidin-4-yl]amino}-2-hydroxycyclopentyl]methyl sulfamate], the “Percent Inhibition” value is 95 and the 50% inhibitory concentration (IC50) is less than 10 nM.

On to `NS(=O)(=O)OC[C@H]1C[C@@H](Nc2ncncc2C(=O)c2cc([C@@]3(C4CCCCC4)CCCO3)cs2)C[C@@H]1O` (mixture of isomers) [I-166, [(1R,2S,4R)-4-{[5-({4-[(2S)-2-cyclohexyltetrahydrofuran-2-yl]-2-thienyl}carbonyl)pyrimidin-4-yl]amino}-2-hydroxycyclopentyl]methyl sulfamate and [(1R,2S,4R)-4-{[5-({4-[(2R)-2-cyclohexyltetrahydrofuran-2-yl]-2-thienyl}carbonyl)pyrimidin-4-yl]amino}-2-hydroxycyclopentyl]methyl sulfamate], for which the “Percent Inhibition” value is reported as 93 and the half-maximal inhibitory concentration (IC50) lay within 10 to 100 nM.

As for `NS(=O)(=O)OC[C@H]1C[C@@H](Nc2ncncc2C(=O)c2cc([C@H](O)C3CCCCC3)c(Cl)s2)C[C@@H]1O` (mixture of isomers) [I-172, [(1R,2S,4R)-4-{[5-({5-chloro-4-[(R)-cyclohexyl(hydroxy)methyl]-2-thienyl}carbonyl)pyrimidin-4-yl]amino}-2-hydroxycyclopentyl]methyl sulfamate and [(1R,2S,4R)-4-{[5-({5-chloro-4-[(S)-cyclohexyl(hydroxy)methyl]-2-thienyl}carbonyl)pyrimidin-4-yl]amino}-2-hydroxycyclopentyl]methyl sulfamate], the “Percent Inhibition” value was determined as 88 and the IC50 lay in the range of 10 to 100 nM.

`NS(=O)(=O)OC[C@H]1C[C@@H](Nc2ncncc2C(=O)c2cc([C@H](O)C3CCOCC3)c(Cl)s2)C[C@@H]1O` (mixture of isomers) [I-174, [(1R,2S,4R)-4-{[5-({5-chloro-4-[(R)-hydroxy(tetrahydro-2H-pyran-4-yl)methyl]-2-thienyl}carbonyl)pyrimidin-4-yl]amino}-2-hydroxycyclopentyl]methyl sulfamate and [(1R,2S,4R)-4-{[5-({5-chloro-4-[(S)-hydroxy(tetrahydro-2H-pyran-4-yl)methyl]-2-thienyl}carbonyl)pyrimidin-4-yl]amino}-2-hydroxycyclopentyl]methyl sulfamate]: the “Percent Inhibition” value worked out at 89 and the IC50 was in the range of 10 to 100 nM.

With `CC(C)[C@@H](O)c1cc(C(=O)c2cncnc2N[C@@H]2C[C@H](COS(N)(=O)=O)[C@@H](O)C2)sc1Cl` (mixture of isomers) [I-195, [(1R,2S,4R)-4-{[5-({5-chloro-4-[(1R)-1-hydroxy-2-methylpropyl]-2-thienyl}carbonyl)pyrimidin-4-yl]amino}-2-hydroxycyclopentyl]methyl sulfamate and [(1R,2S,4R)-4-{[5-({5-chloro-4-[(1S)-1-hydroxy-2-methylpropyl]-2-thienyl}carbonyl)pyrimidin-4-yl]amino}-2-hydroxycyclopentyl]methyl sulfamate], the “Percent Inhibition” value worked out at 68 and the IC50 lay in the range of 10 to 100 nM.

`C=C(C)[C@@H](O)c1coc(C(=O)c2cncnc2N[C@@H]2C[C@H](COS(N)(=O)=O)[C@@H](O)C2)c1.C=C(C)[C@H](O)c1coc(C(=O)c2cncnc2N[C@@H]2C[C@H](COS(N)(=O)=O)[C@@H](O)C2)c1` (mixture of isomers) [I-197, {(1R,2S,4R)-2-Hydroxy-4-[(5-{4-[(1S)-1-hydroxy-2-methylprop-2-en-1-yl]-2-furoyl}pyrimidin-4-yl)amino]cyclopentyl)methyl sulfamate and {(1R,2S,4R)-2-Hydroxy-4-[(5-{4-[(1R)-1-hydroxy-2-methylprop-2-en-1-yl]-2-furoyl}pyrimidin-4-yl)amino]cyclopentyl}methyl sulfamate]: the “Percent Inhibition” value is 69 and the IC50 lay in the range of 10 to 100 nM.
